Results reported in PMC6801562, “PIEZO1 and TRPV4, which Are Distinct Mechano-Sensors in the Osteoblastic MC3T3-E1 Cells, Modify Cell-Proliferation” (International Journal of Molecular Sciences, 2019).

What was measured:
TRPV4 (MC3T3-E1 cells) = biological target: T1, TRPV4 (MC3T3-E1 cells) (Mus musculus, UniProt Q9EPK8); experiment: Fura-2 Ca2+ imaging, MC3T3-E1 cells, Hill fit; type: cell-based; conditions: agonist; native cells; pH 7.4, 2.2 mM Ca2+, n = 7
T1 construct: native full-length channel in mouse osteoblastic MC3T3-E1 cells (Riken Cell Bank); identity supported by siTRPV4 knockdown
T1 sequence (Q9EPK8 whole entry): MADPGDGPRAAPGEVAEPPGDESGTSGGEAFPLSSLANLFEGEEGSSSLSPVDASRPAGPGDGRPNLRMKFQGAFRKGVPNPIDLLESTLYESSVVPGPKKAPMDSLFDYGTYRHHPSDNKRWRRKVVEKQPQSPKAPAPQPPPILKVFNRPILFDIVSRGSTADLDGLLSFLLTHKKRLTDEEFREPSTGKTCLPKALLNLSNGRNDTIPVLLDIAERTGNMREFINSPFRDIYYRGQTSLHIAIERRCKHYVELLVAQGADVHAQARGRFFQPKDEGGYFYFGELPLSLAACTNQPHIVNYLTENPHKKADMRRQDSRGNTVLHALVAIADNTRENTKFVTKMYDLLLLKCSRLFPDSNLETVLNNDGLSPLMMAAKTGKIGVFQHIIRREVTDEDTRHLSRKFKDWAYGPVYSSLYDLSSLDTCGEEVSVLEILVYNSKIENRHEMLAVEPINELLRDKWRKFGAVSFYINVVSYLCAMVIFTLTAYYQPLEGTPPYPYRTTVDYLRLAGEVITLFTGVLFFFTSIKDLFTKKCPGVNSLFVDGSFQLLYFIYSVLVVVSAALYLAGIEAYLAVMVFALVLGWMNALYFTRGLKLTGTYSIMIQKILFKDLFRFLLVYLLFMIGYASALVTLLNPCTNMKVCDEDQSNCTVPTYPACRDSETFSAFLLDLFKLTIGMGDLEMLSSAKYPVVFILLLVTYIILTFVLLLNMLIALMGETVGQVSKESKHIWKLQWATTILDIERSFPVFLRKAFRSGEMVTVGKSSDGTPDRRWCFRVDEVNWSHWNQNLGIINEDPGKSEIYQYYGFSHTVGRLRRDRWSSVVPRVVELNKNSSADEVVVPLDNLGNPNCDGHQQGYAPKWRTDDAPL

[1] = biological target: T2, mouse PIEZO1 (mPIEZO1; HEK-mPiezo1) (Mus musculus, UniProt E2JF22); experiment: Fura-2 Ca2+ imaging, HEK cells, Hill fit; type: cell-based
T2 construct: mouse Piezo1 (Addgene) in pcDNA3.1 / pIRES2-AcGFP1, transiently transfected in HEK 293 cells; low endogenous human PIEZO1 in host
T2 sequence (E2JF22 whole entry): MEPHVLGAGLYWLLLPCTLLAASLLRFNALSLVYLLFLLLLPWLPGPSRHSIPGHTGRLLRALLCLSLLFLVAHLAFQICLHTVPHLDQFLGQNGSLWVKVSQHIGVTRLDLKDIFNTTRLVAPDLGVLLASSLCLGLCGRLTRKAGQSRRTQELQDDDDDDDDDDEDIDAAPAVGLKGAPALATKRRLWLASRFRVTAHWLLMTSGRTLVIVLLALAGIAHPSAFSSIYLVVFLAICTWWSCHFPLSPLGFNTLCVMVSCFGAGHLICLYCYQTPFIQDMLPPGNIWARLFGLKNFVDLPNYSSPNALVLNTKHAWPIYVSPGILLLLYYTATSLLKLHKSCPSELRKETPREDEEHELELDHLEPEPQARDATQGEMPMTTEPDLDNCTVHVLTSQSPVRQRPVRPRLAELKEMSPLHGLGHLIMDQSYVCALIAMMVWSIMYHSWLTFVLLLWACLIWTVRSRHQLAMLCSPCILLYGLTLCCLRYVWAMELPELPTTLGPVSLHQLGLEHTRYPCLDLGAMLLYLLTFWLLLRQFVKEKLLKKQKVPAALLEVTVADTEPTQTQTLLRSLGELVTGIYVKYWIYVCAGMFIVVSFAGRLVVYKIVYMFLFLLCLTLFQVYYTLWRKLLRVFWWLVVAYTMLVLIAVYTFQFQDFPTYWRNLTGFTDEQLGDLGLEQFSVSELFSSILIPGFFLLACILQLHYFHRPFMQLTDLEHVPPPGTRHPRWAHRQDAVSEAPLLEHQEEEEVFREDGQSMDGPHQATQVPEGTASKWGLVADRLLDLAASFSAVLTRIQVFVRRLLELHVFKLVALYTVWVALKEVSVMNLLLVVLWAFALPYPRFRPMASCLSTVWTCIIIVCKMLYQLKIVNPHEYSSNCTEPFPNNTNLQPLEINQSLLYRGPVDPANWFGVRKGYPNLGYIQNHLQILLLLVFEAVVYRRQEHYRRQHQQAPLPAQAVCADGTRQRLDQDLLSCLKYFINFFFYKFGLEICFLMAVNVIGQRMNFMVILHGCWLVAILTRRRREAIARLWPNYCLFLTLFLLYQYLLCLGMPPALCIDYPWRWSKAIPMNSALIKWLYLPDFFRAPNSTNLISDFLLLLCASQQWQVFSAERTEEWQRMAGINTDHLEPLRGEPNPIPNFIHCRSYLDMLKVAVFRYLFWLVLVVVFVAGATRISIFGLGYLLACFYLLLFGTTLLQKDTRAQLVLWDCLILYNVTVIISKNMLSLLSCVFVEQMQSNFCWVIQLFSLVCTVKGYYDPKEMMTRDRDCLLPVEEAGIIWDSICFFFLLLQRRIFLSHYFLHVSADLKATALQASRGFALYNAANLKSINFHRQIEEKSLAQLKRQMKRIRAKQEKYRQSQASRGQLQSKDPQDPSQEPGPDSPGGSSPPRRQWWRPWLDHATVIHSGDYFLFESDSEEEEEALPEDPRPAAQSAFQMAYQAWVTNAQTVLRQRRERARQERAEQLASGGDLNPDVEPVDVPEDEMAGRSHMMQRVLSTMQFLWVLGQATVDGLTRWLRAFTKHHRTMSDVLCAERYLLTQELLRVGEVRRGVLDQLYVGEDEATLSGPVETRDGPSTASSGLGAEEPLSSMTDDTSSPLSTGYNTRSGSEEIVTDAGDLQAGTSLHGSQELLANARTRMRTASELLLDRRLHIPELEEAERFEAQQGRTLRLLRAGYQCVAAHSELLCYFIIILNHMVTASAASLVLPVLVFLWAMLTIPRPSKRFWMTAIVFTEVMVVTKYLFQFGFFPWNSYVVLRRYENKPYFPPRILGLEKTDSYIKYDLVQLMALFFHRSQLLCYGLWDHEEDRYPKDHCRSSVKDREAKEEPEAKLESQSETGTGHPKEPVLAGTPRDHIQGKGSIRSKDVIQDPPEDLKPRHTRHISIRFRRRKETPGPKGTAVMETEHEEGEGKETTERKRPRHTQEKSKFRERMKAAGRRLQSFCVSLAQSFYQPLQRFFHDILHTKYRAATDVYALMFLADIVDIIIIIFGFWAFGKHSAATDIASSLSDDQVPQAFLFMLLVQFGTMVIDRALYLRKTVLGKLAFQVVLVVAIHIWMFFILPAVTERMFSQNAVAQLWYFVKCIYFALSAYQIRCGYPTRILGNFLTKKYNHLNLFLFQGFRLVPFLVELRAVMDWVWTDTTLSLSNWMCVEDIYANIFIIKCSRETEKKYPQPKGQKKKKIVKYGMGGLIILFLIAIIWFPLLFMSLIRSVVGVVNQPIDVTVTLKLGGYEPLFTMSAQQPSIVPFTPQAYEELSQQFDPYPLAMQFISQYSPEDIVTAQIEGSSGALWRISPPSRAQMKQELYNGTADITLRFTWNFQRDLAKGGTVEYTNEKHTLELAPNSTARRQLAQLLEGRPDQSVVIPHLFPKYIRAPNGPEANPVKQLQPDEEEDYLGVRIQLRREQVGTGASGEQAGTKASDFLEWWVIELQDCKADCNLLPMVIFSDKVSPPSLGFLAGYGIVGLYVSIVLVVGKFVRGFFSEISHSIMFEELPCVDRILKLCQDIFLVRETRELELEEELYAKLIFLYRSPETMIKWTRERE

SMILES | EC50 (TRPV4 (MC3T3-E1 cells)) | EC50 [1]
CC(C)C[C@H](NC(=O)c1cc2ccccc2s1)C(=O)N1CCN(C(=O)[C@H](CO)NS(=O)(=O)c2ccc(Cl)cc2Cl)CC1 [GSK1016790A] | 2.25 ± 0.45 nM | 
Clc1cccc(Cl)c1CSc1nnc(-c2cnccn2)s1 [Yoda1, 2-[5-[[(2,6-Dichlorophenyl)methyl]thio]-1,3,4-thiadiazol-2-yl]-pyrazine] |  | 380 ± 70 nM
